{"source": "patent US10105357B2", "about": "“Indication of antibiotic drugs for preparation of cancer inhibition pharmaceutical composition” (LAUNX BIOMEDICAL CO., LTD., priority 2014, dated 2018)", "key": {"[1]": {"system": "cancer cell lines", "test": "Cell viability analysis (WST-1) on cancer cell lines", "assay_type": "cell-based, human", "conditions": "drug 10 μM, 72 hours, WST-1; Table 3"}, "[2]": {"system": "HI650 (Lung Adenocarcinoma)", "test": "Cell viability analysis, lung cancer HI650", "assay_type": "cell-based, human"}, "[3]": {"system": "A549 (Lung Adenocarcinoma)", "test": "Cell viability analysis, lung cancer A549", "assay_type": "cell-based, human"}, "[4]": {"system": "AGS (Gastric Adenocarcinoma)", "test": "Cell viability analysis, gastric cancer AGS", "assay_type": "cell-based, human"}, "[5]": {"system": "MKN-45 (Gastric Adenocarcinoma)", "test": "Cell viability analysis, gastric cancer MKN-45", "assay_type": "cell-based, human"}, "[6]": {"system": "HepG2 (Hepatocellular Carcinoma)", "test": "Cell viability analysis, hepatic cancer HepG2", "assay_type": "cell-based, human"}, "[7]": {"system": "Hep3B (hepatocellular carcinoma)", "test": "Cell viability analysis, hepatic cancer Hep3B", "assay_type": "cell-based, human"}, "[8]": {"system": "LoVo (Colorectal Adenocarcinoma)", "test": "Cell viability analysis, colon cancer LoVo", "assay_type": "cell-based, human"}, "[9]": {"system": "A375 (Amelanotic Melanoma)", "test": "Cell viability analysis, skin cancer A375", "assay_type": "cell-based, human"}, "[10]": {"system": "BCC (basal cell carcinoma)", "test": "Cell viability analysis, skin cancer BCC", "assay_type": "cell-based, human"}, "[11]": {"system": "HeLa (Cervix Adenocarcinoma)", "test": "Cell viability analysis, cervical cancer HeLa", "assay_type": "cell-based, human"}, "[12]": {"system": "C-33A (Cervical carcinoma)", "test": "Cell viability analysis, cervical cancer C-33A", "assay_type": "cell-based, human"}, "[13]": {"system": "PC3 (p53−) (Prostate Adenocarcinoma)", "test": "Cell viability analysis, prostate cancer PC3", "assay_type": "cell-based, human"}, "[14]": {"system": "TSGH-8301 (Urinary Bladder Carcinoma)", "test": "Cell viability analysis, bladder cancer TSGH-8301", "assay_type": "cell-based, human"}, "[15]": {"system": "T24", "test": "Cell viability analysis, bladder cancer T24", "assay_type": "cell-based, human"}, "[16]": {"system": "MCF7 (Mammary Gland, Adenocarcinoma)", "test": "Cell viability analysis, breast cancer MCF7", "assay_type": "cell-based, human"}, "[17]": {"system": "MDA-MB-231 (Mammary Gland, Adenocarcinoma)", "test": "Cell viability analysis, breast cancer MDA-MB-231", "assay_type": "cell-based, human"}, "[18]": {"system": "BxPC-3", "test": "Cell viability analysis, pancreatic cancer BxPC-3", "assay_type": "cell-based, human"}, "[19]": {"system": "AsPC-1", "test": "Cell viability analysis, pancreatic cancer AsPC-1", "assay_type": "cell-based, human"}, "[20]": {"system": "NIH: OVCAR-3", "test": "Cell viability analysis, ovarian cancer NIH: OVCAR-3", "assay_type": "cell-based, human"}, "[21]": {"system": "TOV-21G", "test": "Cell viability analysis, ovarian cancer TOV-21G", "assay_type": "cell-based, human"}, "[22]": {"system": "SAS (Tongue squamous cell carcinoma)", "test": "Cell viability analysis, tongue cancer SAS", "assay_type": "cell-based, human"}, "[23]": {"system": "U-2OS", "test": "Cell viability analysis, osteosarcoma U-2OS", "assay_type": "cell-based, human"}, "[24]": {"system": "786-O (Renal adenocarcinoma)", "test": "Cell viability analysis, renal cancer 786-O", "assay_type": "cell-based, human"}, "[25]": {"system": "HCT116 (p53+) (Colorectal Carcinoma)"}}, "note": "Where a name gives a salt, the structure may show the parent alone.", "data": [{"smiles": "CC1(C)[C@@H](O[C@H]2O[C@H](C(=O)O)[C@@H](O)[C@H](O)[C@H]2O[C@@H]2O[C@H](C(=O)O)[C@@H](O)[C@H](O)[C@H]2O)CC[C@]2(C)[C@H]3C(=O)C=C4[C@@H]5C[C@@](C)(C(=O)O)CC[C@]5(C)CC[C@@]4(C)[C@]3(C)CC[C@@H]12", "note": "[Ammonium Glycyrrhizinate (AMGZ), Ammonium Glycyrrhizinate]", "values": [{"measurement": "inhibition effect on different cancer cell lines", "setting": "[1]", "result": "significant inhibition effect"}, {"measurement": "The results of antibiotic drug inhibiting cancer cell lines (cell viability analysis), H1650", "setting": "[2]", "result": 76.88}, {"measurement": "The results of antibiotic drug inhibiting cancer cell lines (cell viability analysis), A549", "setting": "[3]", "result": 83.55}, {"measurement": "The results of antibiotic drug inhibiting cancer cell lines (cell viability analysis), AGS", "setting": "[4]", "result": 109.2}, {"measurement": "The results of antibiotic drug inhibiting cancer cell lines (cell viability analysis), MKN-45", "setting": "[5]", "result": 96.41}, {"measurement": "The results of antibiotic drug inhibiting cancer cell lines (cell viability analysis), HepG2", "setting": "[6]", "result": 119.7}, {"measurement": "The results of antibiotic drug inhibiting cancer cell lines (cell viability analysis), Hep3B", "setting": "[7]", "result": 102.1}, {"measurement": "The results of antibiotic drug inhibiting cancer cell lines (cell viability analysis), LoVo", "setting": "[8]", "result": 100.4}, {"measurement": "The results of antibiotic drug inhibiting cancer cell lines (cell viability analysis), A375", "setting": "[9]", "result": 100.5}, {"measurement": "The results of antibiotic drug inhibiting cancer cell lines (cell viability analysis), BCC", "setting": "[10]", "result": 93.09}, {"measurement": "The results of antibiotic drug inhibiting cancer cell lines (cell viability analysis), HeLa", "setting": "[11]", "result": 103.4}, {"measurement": "The results of antibiotic drug inhibiting cancer cell lines (cell viability analysis), C-33A", "setting": "[12]", "result": 108.4}, {"measurement": "The results of antibiotic drug inhibiting cancer cell lines (cell viability analysis), PC-3", "setting": "[13]", "result": 120.7}, {"measurement": "The results of antibiotic drug inhibiting cancer cell lines (cell viability analysis), TSGH-8301", "setting": "[14]", "result": 105.2}, {"measurement": "The results of antibiotic drug inhibiting cancer cell lines (cell viability analysis), T24", "setting": "[15]", "result": 107.9}, {"measurement": "The results of antibiotic drug inhibiting cancer cell lines (cell viability analysis), MCF-7", "setting": "[16]", "result": 69.06}, {"measurement": "The results of antibiotic drug inhibiting cancer cell lines (cell viability analysis), MDA-MB231", "setting": "[17]", "result": 98.74}, {"measurement": "The results of antibiotic drug inhibiting cancer cell lines (cell viability analysis), BxPC-3", "setting": "[18]", "result": 102.8}, {"measurement": "The results of antibiotic drug inhibiting cancer cell lines (cell viability analysis), AsPC-1", "setting": "[19]", "result": 100.6}, {"measurement": "The results of antibiotic drug inhibiting cancer cell lines (cell viability analysis), NIH-OVCAR-3", "setting": "[20]", "result": 101}, {"measurement": "The results of antibiotic drug inhibiting cancer cell lines (cell viability analysis), TOV-21G", "setting": "[21]", "result": 74.39}, {"measurement": "The results of antibiotic drug inhibiting cancer cell lines (cell viability analysis), SAS", "setting": "[22]", "result": 83.22}, {"measurement": "The results of antibiotic drug inhibiting cancer cell lines (cell viability analysis), U2OS", "setting": "[23]", "result": 78.97}, {"measurement": "The results of antibiotic drug inhibiting cancer cell lines (cell viability analysis), 786-O", "setting": "[24]", "result": 102.9}, {"measurement": "viability", "setting": "[25]", "result": 93.4, "unit": "%"}]}, {"smiles": "O=c1n(CCCN2CCN(c3cccc(Cl)c3)CC2)nc2ccccn12", "note": "[Trazodone hydrochloride (Desyrel), Trazodone hydrochloride]", "values": [{"measurement": "inhibition effect on different cancer cell lines", "setting": "[1]", "result": "significant inhibition effect"}, {"measurement": "viability at 10 µM", "setting": "[2]; Homo sapiens, NCI-H1650, 72 h, read-out: The results of antibiotic drug inhibiting cancer cell lines (cell viability analysis), H1650, H1650, repeated experiment", "result": 82.4, "unit": "%"}, {"measurement": "viability at 10 µM", "setting": "[3]; Homo sapiens, A549, 72 h, read-out: The results of antibiotic drug inhibiting cancer cell lines (cell viability analysis), A549, A549, repeated experiment", "result": 92, "unit": "%"}, {"measurement": "viability at 10 µM", "setting": "[4]; Homo sapiens, 72 h, read-out: The results of antibiotic drug inhibiting cancer cell lines (cell viability analysis), AGS, repeated experiment", "result": 120, "unit": "%"}, {"measurement": "viability at 10 µM", "setting": "[5]; Homo sapiens, MKN-45, 72 h, read-out: The results of antibiotic drug inhibiting cancer cell lines (cell viability analysis), MKN-45, MKN-45, repeated experiment", "result": 108, "unit": "%"}, {"measurement": "viability at 10 µM", "setting": "[6]; Homo sapiens, HepG2, 72 h, read-out: The results of antibiotic drug inhibiting cancer cell lines (cell viability analysis), HepG2, HepG2, repeated experiment", "result": 109, "unit": "%"}, {"measurement": "viability at 10 µM", "setting": "[7]; Homo sapiens, Hep3B, 72 h, read-out: The results of antibiotic drug inhibiting cancer cell lines (cell viability analysis), Hep3B", "result": 110, "unit": "%"}, {"measurement": "viability at 10 µM", "setting": "[8]; Homo sapiens, LoVo, 72 h, read-out: The results of antibiotic drug inhibiting cancer cell lines (cell viability analysis), LoVo, repeated experiment", "result": 88.8, "unit": "%"}, {"measurement": "viability at 10 µM", "setting": "[9]; Homo sapiens, A-375, 72 h, read-out: The results of antibiotic drug inhibiting cancer cell lines (cell viability analysis), A375, A375, repeated experiment", "result": 111, "unit": "%"}, {"measurement": "viability at 10 µM", "setting": "[10]; Homo sapiens, 72 h, read-out: The results of antibiotic drug inhibiting cancer cell lines (cell viability analysis), BCC", "result": 114, "unit": "%"}, {"measurement": "viability at 10 µM", "setting": "[11]; Homo sapiens, HeLa, 72 h, read-out: The results of antibiotic drug inhibiting cancer cell lines (cell viability analysis), HeLa, repeated experiment", "result": 105, "unit": "%"}, {"measurement": "viability at 10 µM", "setting": "[12]; Homo sapiens, C-33-A, 72 h, read-out: The results of antibiotic drug inhibiting cancer cell lines (cell viability analysis), C-33A", "result": 112, "unit": "%"}, {"measurement": "viability at 10 µM", "setting": "[13]; Homo sapiens, 72 h, read-out: The results of antibiotic drug inhibiting cancer cell lines (cell viability analysis), PC-3, PC-3, repeated experiment", "result": 126, "unit": "%"}, {"measurement": "viability at 10 µM", "setting": "[14]; Homo sapiens, 72 h, read-out: The results of antibiotic drug inhibiting cancer cell lines (cell viability analysis), TSGH-8301, TSGH-8301, repeated experiment", "result": 134, "unit": "%"}, {"measurement": "viability at 10 µM", "setting": "[15]; Homo sapiens, T-24, 72 h, read-out: The results of antibiotic drug inhibiting cancer cell lines (cell viability analysis), T24", "result": 106, "unit": "%"}, {"measurement": "viability at 10 µM", "setting": "[16]; Homo sapiens, MCF7, 72 h, read-out: The results of antibiotic drug inhibiting cancer cell lines (cell viability analysis), MCF-7, MCF-7, repeated experiment", "result": 97.8, "unit": "%"}, {"measurement": "viability at 10 µM", "setting": "[17]; Homo sapiens, MDA-MB-231, 72 h, read-out: The results of antibiotic drug inhibiting cancer cell lines (cell viability analysis), MDA-MB231", "result": 87.8, "unit": "%"}, {"measurement": "viability at 10 µM", "setting": "[18]; Homo sapiens, BXPC-3, 72 h, read-out: The results of antibiotic drug inhibiting cancer cell lines (cell viability analysis), BxPC-3", "result": 73.5, "unit": "%"}, {"measurement": "viability at 10 µM", "setting": "[19]; Homo sapiens, ASPC1, 72 h, read-out: The results of antibiotic drug inhibiting cancer cell lines (cell viability analysis), AsPC-1", "result": 89.4, "unit": "%"}, {"measurement": "viability at 10 µM", "setting": "[20]; Homo sapiens, OVCAR-3, 72 h, read-out: The results of antibiotic drug inhibiting cancer cell lines (cell viability analysis), NIH-OVCAR-3", "result": 103, "unit": "%"}, {"measurement": "viability at 10 µM", "setting": "[21]; Homo sapiens, TOV21G, 72 h, read-out: The results of antibiotic drug inhibiting cancer cell lines (cell viability analysis), TOV-21G", "result": 107, "unit": "%"}, {"measurement": "viability at 10 µM", "setting": "[22]; Homo sapiens, 72 h, read-out: The results of antibiotic drug inhibiting cancer cell lines (cell viability analysis), SAS", "result": 58.4, "unit": "%"}, {"measurement": "viability at 10 µM", "setting": "[23]; Homo sapiens, U2OS, 72 h, read-out: The results of antibiotic drug inhibiting cancer cell lines (cell viability analysis), U2OS", "result": 57.6, "unit": "%"}, {"measurement": "viability at 10 µM", "setting": "[24]; Homo sapiens, 786-0, 72 h, read-out: The results of antibiotic drug inhibiting cancer cell lines (cell viability analysis), 786-O", "result": 95.5, "unit": "%"}, {"measurement": "viability", "setting": "[25]", "result": 113, "unit": "%"}]}]}
